Reference: ChEMBL document CHEMBL1123958, “Synthesis and antiviral properties of (E)-5-(2-bromovinyl)-2'-deoxycytidine-related compounds” (J Med Chem, 1988)

System: Vaccinia virus
Experiment: Concentration required to reduce vaccinia virus induced cytopathogenicity in rabbit cell kidney culture
Format: functional, organism-based
Conditions: Orthopoxvirus vaccinia

Structure (SMILES) | Concentration
CC(=O)OC[C@H]1O[C@@H](n2cc(/C=C/Br)c(-n3cncn3)nc2=O)C[C@@H]1OC(C)=O | 20 µg/mL
Nc1nc(=O)n([C@H]2C[C@H](O)[C@@H](CO)O2)cc1/C=C/Br | > 400 µg/mL
O=c1nc(-n2cncn2)c(/C=C/Br)cn1C1CC(O)C(CCl)O1 (centres undefined) | > 100 µg/mL
CC(=O)OC[C@H]1O[C@@H](n2cc(/C=C/Br)c(=O)[nH]c2=O)C[C@@H]1OC(C)=O | 40 µg/mL
Cc1cn([C@H]2C[C@H](O)[C@@H](CO)O2)c(=O)nc1-n1cncn1 | > 40 µg/mL
O=c1[nH]c(=O)n([C@H]2C[C@H](O)[C@@H](CO)O2)cc1/C=C/Br [BRIVUDINE] | 10 µg/mL
Cc1cn(C2CC(O)C(CCl)O2)c(=O)nc1-n1cncn1 (centres undefined) | > 10 µg/mL
O=c1nc(-n2cncn2)c(/C=C/Br)cn1[C@H]1C[C@H](O)[C@@H](CO)O1 | 7 µg/mL
CC(=O)OC[C@H]1O[C@@H](n2cc(C)c(-n3cncn3)nc2=O)C[C@@H]1OC(C)=O | > 40 µg/mL
